Calls of active or inactive are those of the source.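 Rule for the calls: active = mean IC50 for reducing PEG3 promoter reporter signal at or below a set limit, with IC50 above the limit in both counter screens; inactive = the rest, including counter screen hits.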

Holding throughout (assay): inhibition of PEG-3 promoter-driven reporter – cell-based, HeLa, luciferase, CREF/GAPDH counter-screen panel, dose response (AID 624167)
The subject of one experiment is Rat fibroblasts (CREF). The following applies: CREF/GAPDH counter-screens. (In general: A counterscreen serves to expose hits that act by an unwanted route or on another target.)
For experiment [1], the target named is PEG-3 (UniProt Q6IN02). As to conditions: HeLa PEG-Prom luciferase reporter, overnight, CREF/GAPDH counter-screens, mean of runs. (Reporter assays use an easily measured gene product as a stand-in for the process of interest.)
PEG-3 (UniProt Q6IN02), sequence (Q6IN02 whole entry, looked up): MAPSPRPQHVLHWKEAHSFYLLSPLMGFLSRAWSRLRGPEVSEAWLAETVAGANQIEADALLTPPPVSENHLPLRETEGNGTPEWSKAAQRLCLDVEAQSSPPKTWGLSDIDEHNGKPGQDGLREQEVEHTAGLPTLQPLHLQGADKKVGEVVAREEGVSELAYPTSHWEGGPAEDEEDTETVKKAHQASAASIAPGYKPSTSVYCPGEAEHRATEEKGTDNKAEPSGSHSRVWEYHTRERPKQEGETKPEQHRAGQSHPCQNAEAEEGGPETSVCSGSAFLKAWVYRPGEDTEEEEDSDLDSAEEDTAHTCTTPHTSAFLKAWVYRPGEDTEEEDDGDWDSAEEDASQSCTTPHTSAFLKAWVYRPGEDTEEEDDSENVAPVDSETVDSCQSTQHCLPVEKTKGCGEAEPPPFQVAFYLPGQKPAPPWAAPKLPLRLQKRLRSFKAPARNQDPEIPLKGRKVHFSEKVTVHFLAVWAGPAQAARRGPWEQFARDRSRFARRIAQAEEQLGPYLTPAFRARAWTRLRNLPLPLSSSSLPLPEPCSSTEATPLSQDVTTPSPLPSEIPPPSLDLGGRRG
In experiment [2] the test system is PEG-3. As to conditions: HeLa PEG-Prom luciferase reporter, overnight, CREF/GAPDH counter-screens.
Where [3] appears, read: run 1, dose range 1, individual replicate IC50 per panel.
Where [4] appears, read: run 2, dose range 1, individual replicate IC50 per panel.

In general, IC50 refers to the midpoint of a concentration-inhibition curve. Turning to `O=C(Nc1nc2cc3c(cc2s1)OCO3)C1=COCCO1`, the IC50 in the experiment with Rat fibroblasts (CREF) (mean of runs) is 2290 nM; in the experiment on Rat fibroblasts (CREF) (setting [3]) it was 1920 nM; in the experiment on Rat fibroblasts (CREF) (setting [4]), 2660 nM; on PEG-3 [1] it was 1970 nM; in the experiment with PEG-3 [2] (setting [3]) it was 1680 nM; in the experiment with PEG-3 [2] (setting [4]) it was 2250 nM.

In the case of `C/C(=N/NC(=O)c1cc(C2CC2)[nH]n1)c1cccs1`, the IC50 in the experiment with Rat fibroblasts (CREF) (mean of runs) was 3840 nM; with Rat fibroblasts (CREF) (setting [3]), 3850 nM; in the experiment on Rat fibroblasts (CREF) (setting [4]), 3830 nM; on PEG-3 [1], 6810 nM; in the experiment on PEG-3 [2] (setting [3]), 5930 nM; in the experiment on PEG-3 [2] (setting [4]) it was 7690 nM.

As for `Cc1cccc(/C=N/Nc2ccc3ccccc3n2)c1`, the half-maximal inhibitory concentration (IC50) with Rat fibroblasts (CREF) (mean of runs) is 1410 nM; in the experiment with Rat fibroblasts (CREF) (setting [3]) it was 2440 nM; in the experiment on Rat fibroblasts (CREF) (setting [4]) it was 370 nM; at PEG-3 [1], 4180 nM; in the experiment on PEG-3 [2] (setting [3]) it was 3780 nM; in the experiment on PEG-3 [2] (setting [4]) it was 4580 nM.

For `O=C(NCCc1ccccc1)c1ccc2c(c1)OCCCO2`, the 50% inhibitory concentration (IC50) was 589 nM in the experiment on Rat fibroblasts (CREF) (mean of runs); 374 nM with Rat fibroblasts (CREF) (setting [3]); 803 nM with Rat fibroblasts (CREF) (setting [4]); 557 nM at PEG-3 [1]; 466 nM with PEG-3 [2] (setting [3]); 647 nM in the experiment with PEG-3 [2] (setting [4]).

For `Cc1cc(NC(c2cccnc2)c2ccc3cccnc3c2O)no1` (stereo unspecified), the IC50 with Rat fibroblasts (CREF) (mean of runs) was 5720 nM; in the experiment on Rat fibroblasts (CREF) (setting [3]), 5650 nM; with Rat fibroblasts (CREF) (setting [4]), 5790 nM; at PEG-3 [1], 6130 nM; in the experiment with PEG-3 [2] (setting [3]), 7220 nM; in the experiment with PEG-3 [2] (setting [4]) it was 5040 nM.

Consider `O=C(Nc1ccc(N2CCOCC2)cc1)c1cnsn1`, for which the IC50 with Rat fibroblasts (CREF) (mean of runs) is 2590 nM; in the experiment on Rat fibroblasts (CREF) (setting [3]), 2510 nM; in the experiment with Rat fibroblasts (CREF) (setting [4]), 2680 nM; at PEG-3 [1] it was 2130 nM; in the experiment with PEG-3 [2] (setting [3]), 2800 nM; with PEG-3 [2] (setting [4]), 1470 nM.

For `Cc1csc(NC(=O)c2ccc(N3CCCC3=O)cc2)n1`, the IC50 with Rat fibroblasts (CREF) (mean of runs) is 4510 nM; with Rat fibroblasts (CREF) (setting [3]), 2850 nM; in the experiment on Rat fibroblasts (CREF) (setting [4]), 6170 nM; at PEG-3 [1], 5930 nM; in the experiment on PEG-3 [2] (setting [3]), 5340 nM; in the experiment with PEG-3 [2] (setting [4]) it was 6530 nM.

For `O=C(Nc1nc2cc3c(cc2s1)OCCO3)C1=COCCO1`, the IC50 in the experiment with Rat fibroblasts (CREF) (mean of runs) was 924 nM; in the experiment with Rat fibroblasts (CREF) (setting [3]) it was 575 nM; in the experiment on Rat fibroblasts (CREF) (setting [4]), 1270 nM; at PEG-3 [1] it was 526 nM; with PEG-3 [2] (setting [3]) it was 431 nM; in the experiment on PEG-3 [2] (setting [4]) it was 622 nM.

Regarding `CCN(CCO)c1ccc(N=Nc2cc(C)[nH]n2)cc1`, the IC50 with Rat fibroblasts (CREF) (mean of runs) was 2240 nM; in the experiment with Rat fibroblasts (CREF) (setting [3]), 1520 nM; in the experiment on Rat fibroblasts (CREF) (setting [4]) it was 2970 nM; at PEG-3 [1] it was 4610 nM; in the experiment with PEG-3 [2] (setting [3]), 3000 nM; in the experiment on PEG-3 [2] (setting [4]), 6220 nM.

Regarding `CCn1nc(C)cc1-c1nnc(Sc2ncc([N+](=O)[O-])s2)n1C`, the IC50 with Rat fibroblasts (CREF) (mean of runs) is 4870 nM; in the experiment with Rat fibroblasts (CREF) (setting [3]), 5310 nM; with Rat fibroblasts (CREF) (setting [4]), 4430 nM; on PEG-3 [1] it was 6370 nM; in the experiment on PEG-3 [2] (setting [3]), 8650 nM; in the experiment with PEG-3 [2] (setting [4]), 4090 nM.

`COc1ccc(C(=O)NNC(=O)c2ccccn2)cc1`: the IC50 in the experiment on Rat fibroblasts (CREF) (mean of runs) is 1650 nM; in the experiment with Rat fibroblasts (CREF) (setting [3]), 1210 nM; in the experiment on Rat fibroblasts (CREF) (setting [4]), 2090 nM; on PEG-3 [1] it was 1760 nM; in the experiment on PEG-3 [2] (setting [3]) it was 2680 nM; with PEG-3 [2] (setting [4]), 849 nM.

For `CCCn1c(C)cc(C(=O)CN2C(=O)c3ccccc3S2(=O)=O)c1C`, the IC50 with Rat fibroblasts (CREF) (mean of runs) was 6190 nM; with Rat fibroblasts (CREF) (setting [3]) it was 6320 nM; in the experiment with Rat fibroblasts (CREF) (setting [4]), 6060 nM; at PEG-3 [1] it was 4030 nM; with PEG-3 [2] (setting [3]), 3240 nM; with PEG-3 [2] (setting [4]) it was 4830 nM.

For `CN=c1scc(-c2cccs2)n1/N=C/c1ccccc1O`, the IC50 in the experiment on Rat fibroblasts (CREF) (mean of runs) is 5440 nM; with Rat fibroblasts (CREF) (setting [3]), 5280 nM; in the experiment with Rat fibroblasts (CREF) (setting [4]), 5600 nM; in the experiment on PEG-3 [2] (setting [3]), 260 nM; in the experiment with PEG-3 [2] (setting [4]) it was over 100000 nM. On PEG-3 [1], the IC50 entry was “inactive”.

Turning to `COc1ccc(/C=C/c2nc3ccccc3n2C)cc1`, the IC50 was 3460 nM in the experiment with Rat fibroblasts (CREF) (mean of runs); 3410 nM with Rat fibroblasts (CREF) (setting [3]); 3510 nM with Rat fibroblasts (CREF) (setting [4]); 1910 nM at PEG-3 [1]; 1280 nM with PEG-3 [2] (setting [3]); 2540 nM with PEG-3 [2] (setting [4]).

`O=C(NCCc1ccccc1)c1ccc2c(c1)OCO2`: the IC50 is 6290 nM in the experiment with Rat fibroblasts (CREF) (mean of runs); 6890 nM in the experiment with Rat fibroblasts (CREF) (setting [3]); 5680 nM in the experiment on Rat fibroblasts (CREF) (setting [4]); 4930 nM on PEG-3 [1]; 3970 nM in the experiment on PEG-3 [2] (setting [3]); 5890 nM with PEG-3 [2] (setting [4]).

In the case of `CC(=O)CSc1ccc(-c2nc3cc(C)c(C)cc3[nH]2)cn1`, the IC50 in the experiment on Rat fibroblasts (CREF) (mean of runs) is 2080 nM; in the experiment on Rat fibroblasts (CREF) (setting [3]) it was 1790 nM; in the experiment on Rat fibroblasts (CREF) (setting [4]), 2360 nM; on PEG-3 [1], 2020 nM; with PEG-3 [2] (setting [3]), 2210 nM; in the experiment on PEG-3 [2] (setting [4]) it was 1840 nM.

In the case of `CCCSc1ccc2nc(-c3ccccc3)cn2c1`, the IC50 was 1530 nM in the experiment on Rat fibroblasts (CREF) (mean of runs); 1040 nM in the experiment on Rat fibroblasts (CREF) (setting [3]); 2030 nM in the experiment on Rat fibroblasts (CREF) (setting [4]); 8110 nM on PEG-3 [1]; 7010 nM with PEG-3 [2] (setting [3]); 9200 nM with PEG-3 [2] (setting [4]).

As for `CN(C)c1ccc(NC(=S)c2ccccn2)cc1`, the IC50 with Rat fibroblasts (CREF) (mean of runs) is 1200 nM; in the experiment on Rat fibroblasts (CREF) (setting [3]), 1250 nM; with Rat fibroblasts (CREF) (setting [4]), 1150 nM; on PEG-3 [1], 2580 nM; in the experiment with PEG-3 [2] (setting [3]) it was 2190 nM; in the experiment on PEG-3 [2] (setting [4]), 2970 nM.

As for `COc1ccc2c(c1)sc1nc(-c3ccccc3)cn12`, the IC50 with Rat fibroblasts (CREF) (mean of runs) is 403 nM; in the experiment with Rat fibroblasts (CREF) (setting [3]) it was 323 nM; in the experiment with Rat fibroblasts (CREF) (setting [4]), 484 nM; on PEG-3 [1], 2080 nM; in the experiment on PEG-3 [2] (setting [3]) it was 2460 nM; in the experiment with PEG-3 [2] (setting [4]) it was 1700 nM.

Regarding `O=C(Nc1ncc([N+](=O)[O-])s1)c1ccc2c(c1)OCO2`, the IC50 with Rat fibroblasts (CREF) (mean of runs) was 10800 nM; in the experiment on Rat fibroblasts (CREF) (setting [3]), 8900 nM; in the experiment with Rat fibroblasts (CREF) (setting [4]) it was 12800 nM; on PEG-3 [1], 2210 nM; in the experiment with PEG-3 [2] (setting [3]) it was 2010 nM; with PEG-3 [2] (setting [4]), 2410 nM.

With `C/C(=N\NC(=O)c1n[nH]c2c1CCC2)c1cccs1`, the IC50 in the experiment on Rat fibroblasts (CREF) (mean of runs) is 2490 nM; in the experiment on Rat fibroblasts (CREF) (setting [3]), 2490 nM; in the experiment with Rat fibroblasts (CREF) (setting [4]), 2490 nM; on PEG-3 [1], 1750 nM; in the experiment on PEG-3 [2] (setting [3]), 1170 nM; with PEG-3 [2] (setting [4]), 2330 nM.

In the case of `CC(=O)n1cc(N(C(=O)CCl)c2ccc(C)cc2)c2ccccc21`, the IC50 with Rat fibroblasts (CREF) (mean of runs) was 3960 nM; in the experiment on Rat fibroblasts (CREF) (setting [3]), 5380 nM; with Rat fibroblasts (CREF) (setting [4]) it was 2530 nM; at PEG-3 [1], 9360 nM; with PEG-3 [2] (setting [3]), 11300 nM; in the experiment with PEG-3 [2] (setting [4]), 7380 nM.

For the compound `CN(C)c1ccc(/C=C/c2nc3ccccc3s2)cc1`, the IC50 with Rat fibroblasts (CREF) (mean of runs) is 1560 nM; in the experiment with Rat fibroblasts (CREF) (setting [3]) it was 1170 nM; in the experiment with Rat fibroblasts (CREF) (setting [4]) it was 1940 nM; on PEG-3 [1] it was 6120 nM; with PEG-3 [2] (setting [3]), 4730 nM; in the experiment with PEG-3 [2] (setting [4]) it was 7510 nM.

For the compound `Cc1cc(S(=O)(=O)c2ccc(Cl)cc2)nc(S(=O)(=O)c2ccc(Cl)cc2)c1C#N`, the IC50 with Rat fibroblasts (CREF) (mean of runs) is 13100 nM; in the experiment with Rat fibroblasts (CREF) (setting [3]), 10900 nM; in the experiment on Rat fibroblasts (CREF) (setting [4]), 15300 nM; at PEG-3 [1], 5140 nM; with PEG-3 [2] (setting [3]), 6140 nM; in the experiment on PEG-3 [2] (setting [4]) it was 4140 nM.

With `Cc1ccc(-c2cc3c(nn2)-c2ccccc2C3=O)cc1`, the IC50 in the experiment on Rat fibroblasts (CREF) (mean of runs) was 337 nM; with Rat fibroblasts (CREF) (setting [3]) it was 270 nM; in the experiment on Rat fibroblasts (CREF) (setting [4]) it was 403 nM; on PEG-3 [1], 2760 nM; in the experiment on PEG-3 [2] (setting [3]), 2560 nM; in the experiment on PEG-3 [2] (setting [4]), 2950 nM.

Turning to `O=C1C(Cl)=C(Nc2ccccc2)C(=O)c2ccccc21`, the IC50 with Rat fibroblasts (CREF) (mean of runs) was 7130 nM; in the experiment on Rat fibroblasts (CREF) (setting [3]) it was 4480 nM; in the experiment on Rat fibroblasts (CREF) (setting [4]), 9780 nM; on PEG-3 [1], 7180 nM; in the experiment with PEG-3 [2] (setting [3]), 12500 nM; with PEG-3 [2] (setting [4]), 1900 nM.

Values taken from PubChem BioAssay AID624167 (Sanford-Burnham Center for Chemical Genomics, 2012).
